# Results reported in patent US11098077B2, “Locked nucleic acid cyclic dinucleotide compounds and uses thereof” (CHINOOK THERAPEUTICS, INC., priority 2016, dated 2021).
# pEC50: −log10 of the molar value.
# Legend:
# hSTING HAQ allele = biological target: T1, hSTING HAQ allele (Homo sapiens, UniProt Q86WV6, G230A/H232R/R293Q); experiment: Differential scanning fluorometry (DSF) binding to purified STING AA140-379, HAQ allele; conditions: ligand 1 mM, 1 mg/ml STING AA140-379
# T1 construct: DNA encoding amino acids 140-379 (amino acid numbering corresponding to Swiss Prot Q86WV6); 6xHIS (N, cleaved yes); SUMO (N, cleaved yes); made in house; host or cells: Rosetta2 (DE3) E. coli
# Procedure: (§1) Cells were grown in lysogeny broth at 37° C. until a […] absorbance of 0.6 was reached. […] Cell pellets were re-suspended on ice in a buffer containing 50 mM Tris hydrochloride (Tris-HCl) pH 7.5, 500 mM sodium chloride (NaCl), 20 mM imidazole, 10% glycerol, 1 mM tris(2-carboxyethyl)phosphine hydrochloride (TCEP) and protease inhibitor tablet (Pierce) (Buffer A). Cells were lysed using an S-450D sonifier (Emmerson industrial) on ice. […] Protein was aliquoted, flash frozen in liquid nitrogen and stored at −80° C. until use.
# (§2) The protein is heated in the presence of a dye that binds to and fluoresces in hydrophobic environments. The protein is thermally denatured by heating resulting in increased dye binding to the unfolded protein and fluorescence. The temperature midpoint (Tm) of a proteins denaturation is established by calculating the half maximal value of the denaturation curve. The temperature midpoint of the protein in the presence of a ligand is directly related to the affinity of the ligand for the protein and therefore its ability to stabilize the protein at higher temperatures.
# (§3) Each of wild type hSTING, HAQ allele hSTING and REF allele hSTING were used with each of the reference compounds and compounds of the invention as listed in Table 4. Samples were placed in hard shell PCR plate (Bio-Rad). The fluorescence as a function of temperature was recorded in a CFX 96 real time PCR machine (Bio-Rad) reading on the HEX channel, excitation 450-490, emission 560-580 nm. The temperature gradient was from 15-80° C. ramping 0.5° C. per 15 seconds and recording every 0.5° C. After subtraction of the background signal from a sample lacking protein and ligand. The midpoint temperature (Tm) was calculated by fitting the curves of the fluorescence as a function of temperature to a Boltzmann sigmoidal function (Graph Pad Prism).
# hSTING REF allele = biological target: T2, hSTING REF allele (Homo sapiens, UniProt Q86WV6); experiment: Differential scanning fluorometry (DSF) binding to purified STING AA140-379, REF allele; conditions: for hSTING Tm Shift REF: DSF, ligand 1 mM, 1 mg/ml STING AA140-379; for Tm shift compared with 2′3′-RR-(A)(A) and 2′3′-(G)(A): for the REF allele
# T2 construct: DNA encoding amino acids 140-379 (amino acid numbering corresponding to Swiss Prot Q86WV6); 6xHIS (N, cleaved yes); SUMO (N, cleaved yes); made in house; host or cells: Rosetta2 (DE3) E. coli
# Procedure: as §1, §2, §3
# [1] = system: SIY-specific T cells in splenocytes; experiment: IFNγ ELISPOT of splenocytes stimulated with SIY peptide; type: in vivo, C57BL/6 mice; conditions: day 7 post IT injection
# [2] = system: B16.SIY melanoma tumor cells; experiment: B16.SIY melanoma tumor model, intra-tumoral injection (Example 13); type: in vivo, C57BL/6 mice
# Procedure: (§4) Tumors were measured twice weekly.
# hSTING WT = biological target: T3, hSTING WT (Homo sapiens, UniProt Q86WV6, H232R); experiment: Differential scanning fluorometry (DSF) binding to purified STING AA140-379, wild type; conditions: for hSTING Tm Shift WT: DSF, ligand 1 mM, 1 mg/ml STING AA140-379; for Tm shift compared with natural ligand 2′3′-(G)(A) / Tm shift compared with reference compound 2′3′-RR-(A)(A): for all three alleles (WT, HAQ, REF)
# T3 construct: DNA encoding amino acids 140-379 (amino acid numbering corresponding to Swiss Prot Q86WV6); 6xHIS (N, cleaved yes); SUMO (N, cleaved yes); made in house; host or cells: Rosetta2 (DE3) E. coli
# Procedure: as §1, §2, §3
# [3] = system: serum TNF-α, IFN-γ, IL-6, MCP-1; experiment: Systemic serum pro-inflammatory cytokines by Mouse Inflammation Cytometric Bead Array; conditions: from serum cytokines six hours post-IT injection
# Procedure: To assess the ability of the LNA-CDN molecules to promote anti-tumor immunity in aggressive murine tumor models, 6-8 week old female C57BL/6 mice (8 mice per group) were implanted with B16.SIY melanoma tumor cells (1×10^6 cells in 100 μL PBS). […] Treatments began when tumors reached a volume of approximately 100 mm^3, on day 9 post tumor implantation. The compounds were administered by a single subcutaneous injection into the center of the tumor (IT) using a 27 gauge needle. Tumors were measured twice weekly.
# [4] = biological target: T4, hSTING HAQ allele in THP1-Dual cells (Homo sapiens, UniProt Q86WV6, G230A/H232R/R293Q/R71H); experiment: THP1-Dual IRF-3 inducible secreted luciferase reporter assay (type I interferon activation), without digitonin; type: cell-based
# T4 construct: a human monocyte cell line containing the hSTING HAQ allele; host or cells: THP1-Dual cells
# Procedure: After 30 minutes, cells were washed and fresh RPMI media containing 10% FBS was added, and cells were incubated at 37° C. with 5% CO2 Cell culture supernatants from each sample were collected after overnight incubation, and 10 μL of the cell culture supernatants was added to 50 μL QUANTI-Luc reagent (Invivogen). Type I interferon activation was determined by measuring secreted luciferase levels on a SpectraMax M3 spectrophotometer (Molecular Devices).
# B16.SIY melanoma cells [5] = experiment: B16.SIY melanoma tumor model in WT mice (Example 14); type: in vivo, C57BL/6 (WT) mice; conditions: single IT injection, 100 μg
# Procedure: as §4
# B16.SIY melanoma cells [6] = experiment: B16.SIY melanoma tumor model in STING-deficient Goldenticket mice (Example 14); type: in vivo; conditions: STING-deficient GT mice; single IT injection, 100 μg
# Procedure: as §4
# T4 sequence (Q86WV6 whole entry R71H/G230A/H232R/R293Q): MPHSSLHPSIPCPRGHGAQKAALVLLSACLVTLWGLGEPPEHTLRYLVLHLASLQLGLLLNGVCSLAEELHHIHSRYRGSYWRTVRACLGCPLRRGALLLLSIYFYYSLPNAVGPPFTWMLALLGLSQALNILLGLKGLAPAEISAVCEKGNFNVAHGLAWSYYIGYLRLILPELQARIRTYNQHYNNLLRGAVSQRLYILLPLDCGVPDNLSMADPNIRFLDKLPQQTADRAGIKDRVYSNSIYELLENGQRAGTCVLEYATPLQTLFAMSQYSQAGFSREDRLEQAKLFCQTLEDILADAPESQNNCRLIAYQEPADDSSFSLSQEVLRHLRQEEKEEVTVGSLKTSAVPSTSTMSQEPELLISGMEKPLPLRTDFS
# T1 sequence (Q86WV6 140-379 G230A/H232R/R293Q limits assumed): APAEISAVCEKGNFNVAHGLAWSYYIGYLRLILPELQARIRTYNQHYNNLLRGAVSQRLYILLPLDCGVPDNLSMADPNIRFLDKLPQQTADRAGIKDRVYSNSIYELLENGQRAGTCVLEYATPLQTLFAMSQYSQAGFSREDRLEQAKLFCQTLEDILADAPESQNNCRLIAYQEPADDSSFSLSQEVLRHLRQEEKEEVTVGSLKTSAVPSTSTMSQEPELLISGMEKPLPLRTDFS
# T3 sequence (Q86WV6 140-379 H232R limits assumed): as the sequence (Q86WV6 140-379 G230A/H232R/R293Q limits assumed) above, with A91G, Q154R counted along it
# T2 sequence (Q86WV6 140-379): as the sequence (Q86WV6 140-379 G230A/H232R/R293Q limits assumed) above, with A91G, R93H, Q154R counted along it
SMILES,hSTING Tm Shift HAQ (hSTING HAQ allele),hSTING Tm Shift REF (hSTING REF allele),hSTING Tm Shift WT (hSTING WT),pEC50 [4],Tm shift compared with 2′3′-RR-(A)(A) and 2′3′-(G)(A) (hSTING REF allele),IFNγ ELISPOT T cell responses compared to reference compound 2′3′-RR-(A)(A) ([1]; 1 μg dose),"T cell production of IFNγ in response to SIY peptide stimulation, compared to HBSS ([1]; 0.1, 1 and 10 μg doses)","tumor efficacy compared to reference compound 2′3′-RR-(A)(A) ([2]; single IT injection, 1 μg dose)","tumor regression ([2]; single IT injection, 100 μg dose)","tumor inhibition (tumor volume) compared to HBSS ([2]; single IT injection, 0.1, 1, 10 and 100 μg)",Tm shift compared with natural ligand 2′3′-(G)(A) (hSTING WT),Tm shift compared with reference compound 2′3′-RR-(A)(A) (hSTING WT),safety profile compared to reference compound 2′3′-RR-(A)(A) [3],tumor rejection (tumor volume) compared to HBSS (B16.SIY melanoma cells [5]),anti-tumor effect (tumor volume) (B16.SIY melanoma cells [6])
Nc1ncnc2c1ncn2[C@@H]1O[C@@]23CO[C@@H]1[C@@H]2O[P@](=O)(S)OC[C@@]12CO[C@@H]([C@H](n4cnc5c(N)ncnc54)O1)[C@@H]2O[P@](=O)(S)OC3 [Compound 5a],27.6 °C,10.6 °C,16.8 °C,4.38,greater Tm shift than both 2′3′-RR-(A)(A) and 2′3′-(G)(A),comparable T cell responses,significantly higher T cell production of IFNγ,comparable tumor efficacy as compared to the reference compound 2′3′-RR-(A)(A),complete tumor regression,"potent tumor inhibition as compared to HBSS, in a dose-dependent manner",greater Tm shift than the natural ligand 2′3′-(G)(A),comparable to or greater than that of the reference compound 2′3′-RR-(A)(A),comparable safety profile,,
"Nc1nc2c(ncn2[C@@H]2O[C@@H]3CO[P@@](=O)(S)O[C@H]4[C@H]5OC[C@]4(CO[P@](=O)(S)O[C@@H]2[C@@H]3F)O[C@H]5n2cnc3c(N)ncnc32)c(=O)[nH]1 [Compound 15c, 2′3′-SR-(3′F-G)(2′O,4′C-LNA-A)]",,,,,,,,,,,,,,complete tumor rejection,no anti-tumor effect
"Nc1ncnc2c1ncn2[C@@H]1O[C@@H]2CO[P@](=O)(S)O[C@H]3[C@H]4OC[C@]3(CO[P@](=O)(S)O[C@@H]1[C@@H]2O)O[C@H]4n1cnc2c(N)ncnc21 [Compound 10d, dithio-(Sp,Sp)-cyclic-[A(2′,5′)p-2′O,4′-C-LNA-A(3′,5′)p]]",5.0 °C,3.2 °C,4.1 °C,< 3.82,,,,,,,,,,,
"Nc1ncnc2c1ncn2[C@@H]1O[C@@H]2CO[P@@](=O)(S)O[C@H]3[C@H]4OC[C@]3(CO[P@@](=O)(S)O[C@@H]1[C@@H]2F)O[C@H]4n1cnc2c(N)ncnc21 [Compound 27a, dithio-(Rp,Rp)-cyclic-[3′F-A(2′,5′)p-2′O,4′C-LNA-A(3′,5′)p]]",18.2 °C,10.2 °C,11.8 °C,5.00,greater Tm shift than both 2′3′-RR-(A)(A) and 2′3′-(G)(A),,,,,,,comparable to or greater than that of the reference compound 2′3′-RR-(A)(A),,,
"Nc1nc2c(ncn2[C@@H]2O[C@@]34CO[C@@H]2[C@@H]3O[P@](=O)(S)OC[C@H]2O[C@@H](n3cnc5c(N)ncnc53)[C@H](O)[C@@H]2O[P@](=O)(S)OC4)c(=O)[nH]1 [Compound 33a, 3′3′-RR-(A)(2′O,4′C-LNA-G)]",29.6 °C,11.9 °C,18.36 °C,4.52,greater Tm shift than both 2′3′-RR-(A)(A) and 2′3′-(G)(A),,,,,,greater Tm shift than the natural ligand 2′3′-(G)(A),comparable to or greater than that of the reference compound 2′3′-RR-(A)(A),,,
"Nc1ncnc2c1ncn2[C@@H]1O[C@@H]2CO[P@](=O)(S)O[C@H]3[C@H]4OC[C@]3(CO[P@@](=O)(S)O[C@@H]1[C@@H]2F)O[C@H]4n1cnc2c(N)ncnc21 [Compound 27b, dithio-(Rp,Sp)-cyclic-[3′F-A(2′,5′)p-2′O,4′C-LNA-A(3′,5′)p]]",13.2 °C,7.1 °C,8.2 °C,4.09,,,,,,,,,,,

# Continued, in another order:
hSTING Tm Shift HAQ (hSTING HAQ allele),hSTING Tm Shift REF (hSTING REF allele),hSTING Tm Shift WT (hSTING WT),pEC50 [4],SMILES,Tm shift compared with 2′3′-RR-(A)(A) and 2′3′-(G)(A) (hSTING REF allele),IFNγ ELISPOT T cell responses compared to reference compound 2′3′-RR-(A)(A) ([1]; 1 μg dose),"T cell production of IFNγ in response to SIY peptide stimulation, compared to HBSS ([1]; 0.1, 1 and 10 μg doses)","tumor efficacy compared to reference compound 2′3′-RR-(A)(A) ([2]; single IT injection, 1 μg dose)","tumor regression ([2]; single IT injection, 100 μg dose)","tumor inhibition (tumor volume) compared to HBSS ([2]; single IT injection, 0.1, 1, 10 and 100 μg)",Tm shift compared with natural ligand 2′3′-(G)(A) (hSTING WT),Tm shift compared with reference compound 2′3′-RR-(A)(A) (hSTING WT),safety profile compared to reference compound 2′3′-RR-(A)(A) [3],tumor rejection (tumor volume) compared to HBSS (B16.SIY melanoma cells [5]),anti-tumor effect (tumor volume) (B16.SIY melanoma cells [6])
34.0 °C,13.1 °C,20.3 °C,5.24,"Nc1nc2c(ncn2[C@@H]2O[C@@H]3CO[P@@](=O)(S)O[C@H]4[C@H]5OC[C@]4(CO[P@@](=O)(S)O[C@H]3[C@H]2O)O[C@H]5n2cnc3c(N)ncnc32)c(=O)[nH]1 [Compound 45a, 2-amino-9-((2R,3R,3aS,5R,7aR,9R,10R,10aS,12R,14aR)-2-(6-amino-9H-purin-9-yl)-10-hydroxy-5,12-dimercapto-5,12-dioxidohexahydro-2H,7H,14H-3,14a-(epoxymethano)difuro[3,2-d:3′,2′-j][1,3,7,9]tetraoxa[2,8]diphosphacyclododecin-9-yl)-1,9-dihydro-6H-purin-6-one]",greater Tm shift than both 2′3′-RR-(A)(A) and 2′3′-(G)(A),,,,,,greater Tm shift than the natural ligand 2′3′-(G)(A),comparable to or greater than that of the reference compound 2′3′-RR-(A)(A),,,
11.2 °C,2.1 °C,4.7 °C,4.21,"Nc1ncnc2c1ncn2[C@@H]1O[C@@H]2CO[P@@](=O)(S)O[C@H]3[C@H]4OC[C@]3(CO[P@@](=O)(S)O[C@@H]1[C@H]2F)O[C@H]4n1cnc2c(N)ncnc21 [Compound 37a, dithio-(RP,RP)-cyclic-[3′βF-A(2′,5′)p-2′O,4′C-LNA-A(3′,5′)p]]",,,,,,,,,,,
14.7 °C,7.4 °C,9.4 °C,4.22,"Nc1nc2c(ncn2[C@@H]2O[C@@H]3CO[P@](=O)(S)O[C@H]4[C@H]5OC[C@]4(CO[P@@](=O)(S)O[C@H]3[C@H]2O)O[C@H]5n2cnc3c(N)ncnc32)c(=O)[nH]1 [Compound 45b, 2-amino-9-((2R,3R,3aS,5S,7aR,9R,10R,10aS,12R,14aR)-2-(6-amino-9H-purin-9-yl)-10-hydroxy-5,12-dimercapto-5,12-dioxidohexahydro-2H,7H,14H-3,14a-(epoxymethano)difuro[3,2-d:3′,2′-j][1,3,7,9]tetraoxa[2,8]diphosphacyclododecin-9-yl)-1,9-dihydro-6H-purin-6-one]",,,,,,,,,,,
2.4 °C,−0.3 °C,−0.3 °C,< 3.82,"Nc1ncnc2c1ncn2[C@@H]1O[C@@H]2CO[P@](=O)(S)O[C@H]3[C@H]4OC[C@]3(CO[P@](=O)(S)O[C@@H]1[C@H]2F)O[C@H]4n1cnc2c(N)ncnc21 [Compound 37d, dithio-(SP,SP)-cyclic-[3′βF-A(2′,5′)p-2′O,4′C-LNA-A(3′,5′)p]]",,,,,,,,,,,
